Legend:
OSGPR78 = molecular target: T1, OSGPR78 (Homo sapiens, UniProt P43657, I33V); experiment: Yeast Fus1p-LacZ β-galactosidase reporter assay, OSGPR78-transformed yeast; assay type: cell-based; details: Galpha i and Galpha 12/13 family chimeras (13393, 15074, 13395)
T1 construct: expressed in transfected cells; host or cells: engineered yeast (GPA1 replaced by G-alpha chimeras, STE3 deleted; Fus1p-LacZ reporters)
T1 sequence (P43657 1-344 I33V): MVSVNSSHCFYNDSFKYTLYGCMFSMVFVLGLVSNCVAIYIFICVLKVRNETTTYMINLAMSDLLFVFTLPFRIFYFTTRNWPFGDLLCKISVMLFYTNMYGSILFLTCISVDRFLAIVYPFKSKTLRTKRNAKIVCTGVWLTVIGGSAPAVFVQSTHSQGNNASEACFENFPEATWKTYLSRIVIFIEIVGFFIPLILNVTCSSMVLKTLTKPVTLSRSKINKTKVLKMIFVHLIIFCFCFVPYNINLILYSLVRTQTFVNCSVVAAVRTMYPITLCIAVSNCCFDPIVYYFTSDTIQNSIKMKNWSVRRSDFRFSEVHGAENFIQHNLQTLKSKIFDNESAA
Source text: The yeast cell-based reporter assays have previously been described in the literature (e.g. see Miret J. J., et. al. (2002) J. Biol. Chem. 277:6881-6887; Campbell R. M., et. al. (1999) Bioorg Med. Chem. Lett. 9:2413-2418; King K., et. al. (1990) Science. 250:121-123); WO 99/14344; WO 00/12704; and U.S. Pat. No. 6,100,042). Briefly, yeast cells have been engineered such that the endogenous yeast G-alpha (GPA1) has been deleted and replaced with G-protein chimeras constructed using multiple techniques. Additionally the endogenous yeast alpha-cell GPCR, STE3 has been deleted to allow for a […] expression of a mammalian GPCR of choice. In the yeast, elements of the pheromone signaling transduction pathway, which are conserved in eukaryotic cells (for example, the mitogen-activated protein kinase pathway), drive the expression of Fus1. By placing β-galactosidase (LacZ) under the control of the Fus1 promoter (Fus1p), a system has been developed whereby receptor activation leads to an enzymatic read-out. Different yeast strains (e.g. FIG. 6) denote the presence of different G-alpha chimeras (see “yeast reporter assays” in Results section below for definitions).
Yeast cells are transformed by an adaptation of the Lithium acetate method described by Agatep et.al. (Agatep, R., et. al. (1998) Transformation of Saccharomyces cerevisiae by the lithium acetate/single-stranded carrier DNA/polyethylene glycol (LiAc/ss-DNA/PEG) protocol. Technical Tips Online, Trends Journals, Elsevier). Briefly, yeast cells are grown overnight on yeast tryptone plates (YT). Carrier single-stranded DNA (10 μg), 2 μg of each of two Fus1p-LacZ reporter plasmids (one with URA3 selection marker and one with TRP1), 2 μg of OSGPR114 or OSGPR78 in yeast expression vector (2p origin of replication) and a lithium acetate/polyethylene glycol/TE buffer is pipetted into an Epindorf tube. The yeast expression plasmid containing the receptor/no receptor control has a LEU2 marker. Yeast cells are inoculated into this mixture and the reaction proceeds at 30° C. for 60 minutes. The yeast cells are then heat-shocked at 42° C. for 15 minutes. The cells are then washed and spread on selection plates. The selection plates are synthetic defined yeast media minus LEU, URA and TRP (SD-LUT). After incubating at 30° C. for 2-3 days, colonies that grow on the selection plates are then tested in the LacZ assay.
In order to perform fluorometric enzyme assays for β-galactosidase, yeast cells were grown overnight in liquid SD-LUT media to an unsaturated concentration (i.e. the cells are still dividing and have not yet reached stationary phase). They are diluted in fresh media to an optimal assay concentration and 90 μL of yeast cells were added to 96-well black polystyrene plates (Costar). Compounds, dissolved in ethanol and diluted in a 1% BSA solution to 10× concentration, were added to the plates and the yeast are placed at 30° C. for 4 h. After 4 h, the substrate for the β-galactosidase is added to each well: The substrate may yield a fluorescent or calorimetric read-out upon the activity of the β-galactosidase. In these experiments, Fluorescein di(β-D-galactopyranoside) was used (FDG), a substrate for the enzyme that releases fluorescein, allowing a fluorometric read-out. 20 μL of 500 μM FDG was used. After incubation of the cells with the substrate for 30-60 mins, 20 μL of 1 M sodium carbonate is added to terminate the reaction and enhance the fluorescent signal. The plates were then read in a fluorometer at 485/535 nm. As an alternate read-out system, the yeast are also engineered with a Fus1p-HIS gene which means that activation of the receptor can also be measured through the growth of the yeast in a […] media.

HCT-8 cells = experiment: LPA effect on cell proliferation (Cell TiterGlo); assay type: cell-based, human
Experimental: The effect of LPA on cell proliferation (Cell TiterGlo assay, Promega) and induction of apoptosis (Apo-One Caspase 3/7 assay, Promega) was measured in the presence and absence of serum. Cell-titer Glo is an assay that quantitates ATP as a measurement of the number of viable cells in a culture. The assay utilizes a luciferase-based luminescent signal. The Apo-One assay utilizes a profluorescent caspase 3/7 consensus substrate to measure the activation of caspase in the sample. The experiments were conducted in serum-free media as it is known that serum contains high concentrations of LPA (of the order of 10-30 uM). Briefly, cells were plated in 96-well plates at a density of 20,000 cells/well. After 24 h the serum-containing media was removed from the cells and replaced with either serum-containing or serum-free media. After 24 h LPA, at concentrations from 1-100 μM was added to the cells. 24 h later the induction of apoptosis and the level of cellular proliferation was measured using the Cell titer-glo or Caspase 3/7 Apo-One assay kits commercially available from Promega.

[1] = test system: Akt in CHO cell line stably transfected with OSGPR114; experiment: Akt phosphorylation, phospho-specific Akt antibody; assay type: cell-based; details: 10 uM, 3 minutes
Experimental: FIG. 26. Effect of LPA (10 μM), EGF (1 μM) and DMSO on levels of phospho-Akt as a in a CHO-K1 cell line stably transfected with OSGPR114.
The protein Akt is a well characterized survival pathway for many cancer cells and is a pathway that can be induced by multiple cell growth factors (For review, see Marte and Downward (1997) Trends Biochem. Sci. 22:355-358). […] The cells used for this experiment were a CHO cell line stably transfected with OSGPR114. The cells were treated with vehicle, LPA (10 uM) or EGF (1 uM) for 3 minutes.

Substance: lysophosphatidic acid [LPA]
- response in yeast G-alpha chimera strains (OSGPR78): optimal for LPA response
- cell growth / proliferation (HCT-8 cells; presence of 10% FCS): no statistically significant effects
- cell growth / proliferation (HCT-8 cells; serum free conditions, LPA 1-100 μM, 24 h): induced growth of the cells in a concentration dependent manner
- phosphorylation of Akt [1]: stimulate phosphorylation of Akt

Reference: patent publication US7879566B2, “Methods for the identification of modulators of OSGPR114 or OSGPR78 activity, and their use in the treatment of disease” (OSI Pharmaceuticals, Inc., priority 2003, dated 2011)
